From patent US6093747A, “1,7,7-trimethyl-bicyclo[2.2.1]heptane derivatives as anxiolytic agents having enhanced receptor specificity” (priority 1996, dated 2000) come the findings set out here.

A value given as a limit tells only on which side of the number the result lay.

The target in one data set is T1, 5-HT1A (Rattus norvegicus, UniProt P19327).
T1 construct: from tissue; host or cells: male Wistar rat frontal cortex, membrane fraction
T1 sequence (P19327 1-422): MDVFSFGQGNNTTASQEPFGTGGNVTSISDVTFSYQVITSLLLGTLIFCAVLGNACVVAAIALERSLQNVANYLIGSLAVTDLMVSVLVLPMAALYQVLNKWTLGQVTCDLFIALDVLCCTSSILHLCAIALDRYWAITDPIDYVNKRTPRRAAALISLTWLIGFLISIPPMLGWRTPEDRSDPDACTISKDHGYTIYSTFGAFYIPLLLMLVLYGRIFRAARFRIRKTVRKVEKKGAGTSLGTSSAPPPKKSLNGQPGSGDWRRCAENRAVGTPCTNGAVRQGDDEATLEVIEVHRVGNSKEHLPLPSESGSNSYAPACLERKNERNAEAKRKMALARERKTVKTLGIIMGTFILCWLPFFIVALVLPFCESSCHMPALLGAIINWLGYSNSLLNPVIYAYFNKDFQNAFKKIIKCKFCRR
The data set can be described thus: Receptor binding assay, 5-HT1A (3H-8-OH-DPAT). The note with it: 3H-8-OH-DPAT 0.7 nM, frontal cortex. Set-up: species or system male Wistar rat. Here is the method:
(§1) The different brain regions of 120-200 g male Wistar rats were used for receptor binding assays except for 5-HT2c receptors where binding studies were performed on porcine choroid plexus. Protein content of the membrane fraction was determined as described by Lowry [Lowry, O. H., Rosebrough, M. J., Farr, A. L. and Randall, R. Y.: J. Biol. Chem., 193: 265-275, 1951].
frontal 5-HT Peroutka, S.
0.7 nM cortex (10 μM) J. J.

The next data set concerns the target T2, 5-HT2A (Rattus norvegicus, UniProt P14842).
T2 construct: from tissue; host or cells: male Wistar rat frontal cortex, membrane fraction
The data set can be described thus: Receptor binding assay, 5-HT2A (3H-ketanserin). Set-up: species or system male Wistar rat. The note with it: 3H-ketanserin 1.0 nM, frontal cortex. Here is the method: as §1
5-HT2A ^3 H-ketanserin frontal cyprohepta- Leysen, J. E.
1.0 nM cortex dine et al.: Mol.

Data set [1] concerns the target T3, 5-HT2C (Sus scrofa, UniProt K7GSR7).
T3 construct: from tissue; host or cells: porcine choroid plexus
T3 sequence (K7GSR7 1-457): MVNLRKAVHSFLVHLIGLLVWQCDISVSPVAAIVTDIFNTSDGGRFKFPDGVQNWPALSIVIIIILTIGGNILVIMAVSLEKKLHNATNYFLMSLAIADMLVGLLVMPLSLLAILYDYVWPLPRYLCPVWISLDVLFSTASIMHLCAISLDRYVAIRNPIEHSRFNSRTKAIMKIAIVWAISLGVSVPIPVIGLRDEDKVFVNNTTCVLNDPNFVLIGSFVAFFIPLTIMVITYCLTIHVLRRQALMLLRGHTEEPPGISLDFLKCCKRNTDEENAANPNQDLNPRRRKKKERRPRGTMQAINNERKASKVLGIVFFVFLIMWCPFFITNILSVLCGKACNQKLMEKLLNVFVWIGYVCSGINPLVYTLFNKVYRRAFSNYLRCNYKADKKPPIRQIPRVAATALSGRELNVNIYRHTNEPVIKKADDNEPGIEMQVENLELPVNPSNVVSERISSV
The data set can be described thus: biochemical. The format is binding, porcine. Here is the method:
as §1
(§2) 5-HT2C ^3 H-mesulergin choroid mianserin Pazos, A. et
(§3) 1.0 nM plexus (1 μM) al. Eur. J.

The test system of data set [2] is 5-HT2C. The data set can be described thus: biochemical. The class given is binding, porcine. The note with it: among 5-HT receptors. Here is the method: as §1, §2, §3
For the next data set, the target named is T4, D1 (Rattus norvegicus, UniProt P18901).
T4 construct: from tissue; host or cells: male Wistar rat striatum, membrane fraction
The data set can be described thus: Receptor binding assay, D1 (3H-SCH 23390). Set-up: species or system male Wistar rat. The following applies: 3H-SCH 23390 0.78 Nm, striatum. On the procedure:
as §1
D1 ^3 H-SCH 23390 striatum cis- Hietala J. et
0.78 Nm flupentixol al., Neurosci.

The next data set addresses T5, D2 (Rattus norvegicus, UniProt P61169).
T5 construct: from tissue; host or cells: male Wistar rat striatum, membrane fraction
The data set can be described thus: Receptor binding assay, D2 (3H-spiperone). Set-up: species or system male Wistar rat. The following applies: 3H-spiperone 0.5 nM, striatum. Here is the method:
as §1
D2 ^3 H-spiperone striatum butaclamol Leff, S. et al.,

A further data set addresses T6, Sigma (Rattus norvegicus, UniProt Q9R0C9).
T6 construct: from tissue; host or cells: male Wistar rat cerebellum, membrane fraction
The data set can be described thus: Receptor binding assay, Sigma (3H-pentazocine). Set-up: species or system male Wistar rat. The note with it: for Ki: Sigma, 3H-pentazocine 3.0 nM, cerebellum. On the procedure: as §1
Sigma ^3 H-pentazocine cerebellum haloperidol Costa B. R. et
3.0 nM (10 μM) al., Febs Lett.,

Another data set in a line: Elevated plus-maze test. The class given is in vivo, male Sprague-Dawley rats. The following applies: for minimal effective dose: Rattus norvegicus, 1 h, treated 60 minutes prior to the test, based on times spent in the open arms, read-out: MED (minimal effective dose), elevated plus maze; for effect in the elevated plus maze test (in words): rat, in vivo. Here is the method: The elevated plus-maze consisted of two open and two 40 cm wall enclosed arms of the same size (50×15 cm) arranged in the shape of a cross. The arms of the same type were opposite to each other. The junction of the four arms forms a central square area (15×15 cm). The apparatus is made of wooden material elevated to a height of 50 cm from the floor and illuminated by a dim light from above.
Male Sprague-Dawley rats weighing 220-260 g were treated with the test or reference compounds 60 minutes prior to the test. They were then placed onto the central square area and were subjected to the test for 5 minutes. The following parameters were determined:
Time spent in the open arms;
Time spent in the closed arms;
Number of entries into the open arms;
Number of entries into the closed arms.
A compound was considered to be effective when significant increase was found either in the time spent in the open arms or in the number of entries into the open arms when compared to the control animals. Minimum Effective Doses (MED) were determined based on the times spent in the open arms for each compound examined (Table II) [Pelow et al., J. Neurosci. Methods, 14: 149-169, 1985].

Data set [3] can be described thus: Inhibition of mCPP induced anxiety (light-dark apparatus). The class given is in vivo, male Wistar rats. The note with it: for minimal effective dose: Rattus norvegicus, ip, treated twenty minutes before mCPP s.c., read-out: MED (minimal effective dose), inhibition of mCPP induced anxiety; for effect on mCPP induced anxiety (in words): rat model, Compound A up to 3.0 mg/kg i.p. On the procedure: The tests were carried out on male Wistar rats weighing 160-220 g according to Kennett [Kennett, G. A., Whitton, P., Shah, K. and Curzon, G. Eur. J. Pharmacol., 164: 445-454, 1989.]. The animals were treated either with the test compound or with vehiculum (0.4% methyl cellulose solution). Twenty minutes later either mCPP (m-chlorophenyl-piperazin) or physiological saline was administered subcutaneously. The animals were kept in the dark for additional 20 minutes, then they were placed into the light-dark apparatus (Omnitech, Digiscan, Model RXYZCM16) and their motor activity was recorded for five minutes. The testbox consisted of one dark and one lit compartment of the same size (39×20×29 cm) with an 8×8 gate providing free passage for the animals between the two compartments. The lit area was illuminated by a 40 W red light bulb 30 cm above the floor. Motor activity was recorded as the number of interruptions of the infrared light beams (16 beams 2 cm and 16 beams 8 cm above the floor). The number of crossing in the lit compartment was considered as the measure of antagonistic effect on mCPP induced anxiety. Data were statistically analyzed by one way ANOVA followed by Dunnet's t-test.

A short description of data set [4]: Inhibition of spontaneous motor activity. The format is in vivo, mice. The following applies: for ED50: Mus musculus, 1 h, treated 60 minutes prior to the test, ID50 by linear regression analysis. Here is the method: Inhibition of Spontaneous Motor Activity
Spontaneous motor activity was measured as described earlier [Borsy et al., Arch. Int. Pharmacodyn. 124: 1-, 1960.] in a 10 box apparatus (Dews) 3--3 mice in each compartment. Mice were treated either with test compounds or with vehiculum 60 minutes prior to the test. The number of interruptions of the infrared light beams was counted, ID50 values were calculated by linear regression analysis (Table IV).

Another data set in a line: animal or person. The note with it: for ED50: Mus musculus, po, 1 h, read-out: ED50, potentiation of hexobarbital induced narcosis. The format is in vivo, male NMRI mice. Here is the method:
Potentiation of Hexobarbital Induced Narcosis
Male NMRI mice weighing 20-25 g were treated p.o. with the test compound or with vehiculum in 20 ml/kg volume 60 minutes prior to the iv. injection of 40 mg/kg (10 ml/kg) hexobarbital. The sleeping animals were placed on a flat surface lying on their left side and the accurate sleeping and awakening times were recorded. The animals were considered to be awaken when they rolled up from their side.
Sleeping times 2.5 times higher than the average of the control group were considered as criterion for potentiation (cut up method), results were expressed as percent increase compared to control values, ED50 values were calculated from the dose response curves according to Litchfield-Wilcoxon.

T6 sequence (Q9R0C9 whole entry): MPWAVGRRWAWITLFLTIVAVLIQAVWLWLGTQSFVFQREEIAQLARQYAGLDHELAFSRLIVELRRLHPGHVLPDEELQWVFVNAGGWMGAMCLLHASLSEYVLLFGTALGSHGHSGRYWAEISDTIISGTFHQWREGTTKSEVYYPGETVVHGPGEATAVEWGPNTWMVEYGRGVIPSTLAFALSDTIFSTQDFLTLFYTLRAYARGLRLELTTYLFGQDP
T4 sequence (P18901 whole entry): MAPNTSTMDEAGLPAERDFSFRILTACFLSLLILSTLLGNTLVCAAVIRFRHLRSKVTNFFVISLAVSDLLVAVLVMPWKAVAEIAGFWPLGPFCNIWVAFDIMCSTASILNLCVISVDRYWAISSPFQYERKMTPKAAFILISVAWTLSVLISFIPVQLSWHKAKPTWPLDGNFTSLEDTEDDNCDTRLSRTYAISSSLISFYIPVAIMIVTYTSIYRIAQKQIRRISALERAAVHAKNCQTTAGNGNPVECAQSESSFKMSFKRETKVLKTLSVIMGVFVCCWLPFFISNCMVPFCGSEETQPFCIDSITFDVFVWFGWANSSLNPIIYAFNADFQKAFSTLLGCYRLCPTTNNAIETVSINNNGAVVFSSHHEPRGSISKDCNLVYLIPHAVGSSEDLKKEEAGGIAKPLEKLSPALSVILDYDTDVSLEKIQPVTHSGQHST
T5 sequence (P61169 whole entry): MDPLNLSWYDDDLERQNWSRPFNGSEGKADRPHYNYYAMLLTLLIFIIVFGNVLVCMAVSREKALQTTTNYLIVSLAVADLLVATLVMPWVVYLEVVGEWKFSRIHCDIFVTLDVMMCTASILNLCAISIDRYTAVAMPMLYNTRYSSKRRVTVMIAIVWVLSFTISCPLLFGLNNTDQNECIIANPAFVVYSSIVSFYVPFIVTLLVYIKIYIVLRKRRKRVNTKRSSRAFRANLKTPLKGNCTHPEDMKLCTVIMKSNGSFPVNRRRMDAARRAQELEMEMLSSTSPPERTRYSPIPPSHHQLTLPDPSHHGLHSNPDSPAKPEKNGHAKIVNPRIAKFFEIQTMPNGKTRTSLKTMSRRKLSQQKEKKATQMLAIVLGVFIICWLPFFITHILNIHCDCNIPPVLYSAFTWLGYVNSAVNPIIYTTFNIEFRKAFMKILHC
T2 sequence (P14842 whole entry): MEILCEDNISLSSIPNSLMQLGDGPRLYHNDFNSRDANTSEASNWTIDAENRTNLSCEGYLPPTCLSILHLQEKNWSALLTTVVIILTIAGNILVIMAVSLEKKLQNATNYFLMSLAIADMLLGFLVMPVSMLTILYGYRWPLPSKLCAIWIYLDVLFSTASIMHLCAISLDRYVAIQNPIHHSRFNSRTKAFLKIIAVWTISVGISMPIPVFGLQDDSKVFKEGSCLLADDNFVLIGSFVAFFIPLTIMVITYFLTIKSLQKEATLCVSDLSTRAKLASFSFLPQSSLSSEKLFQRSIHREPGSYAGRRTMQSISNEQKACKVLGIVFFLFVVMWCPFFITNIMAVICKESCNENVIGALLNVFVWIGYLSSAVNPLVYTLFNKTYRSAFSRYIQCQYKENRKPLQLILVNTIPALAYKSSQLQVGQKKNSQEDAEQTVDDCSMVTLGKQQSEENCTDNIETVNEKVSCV

A word on the Ki: it is the dissociation constant of the complex between target and ligand, obtained from inhibition or displacement. Lower therefore signals higher affinity. For orientation: minimal effective dose means the smallest amount tested that counted as effective. The ED50 is the midpoint of the dose-response relation. As to `CN(C)CCO[C@]1(c2ccccc2)C[C@H]2CC[C@]1(C)C2(C)C` [Compound B, (1R,2S,4R)-(-)-2-phenyl-2-dimethylaminoethoxy-1,7,7-trimethyl-bicyclo[2.2.1]heptane-fumarate, reference compound], the Ki at 5-HT1A was greater than 10000 nM; on 5-HT2A, 35 nM; at 5-HT2C [1], 9 nM; on D1, greater than 1000 nM; on D2, greater than 100 nM; at Sigma it was 52 nM. Moreover, the “selectivity of binding among 5-HT receptors (in words)” value in the data set with 5-HT2C [2] was “not selective at 2C”. In addition, on Sigma, the “binding at sigma receptors (in words)” value is recorded as “shows significant binding at sigma receptors”. Further, the minimal effective dose in “Elevated plus-maze test” was greater than 10 mg/kg; in data set [3] it was 0.5 mg/kg. Further, the “effect in the elevated plus maze test (in words)” value in “Elevated plus-maze test” is on record as “did not show any effect”. Also, the “effect on mCPP induced anxiety (in words)” value in [3] is on record as “significantly antagonized the mCPP induced anxiety”. The values for the ED50 (in data set [4]; in the data set “animal or person”) were 31.5 mg/kg and 0.5 mg/kg, respectively.
Turning to `CNCCO[C@]1(c2ccccc2)C[C@H]2CC[C@]1(C)C2(C)C` [Compound A, (1R,2S,4R)-(-)-2-phenyl-2-methylaminoethoxy-1,7,7-trimethyl-bicyclo[2.2.1]heptane-fumarate], the Ki was greater than 10000 nM on 5-HT1A; greater than 100 nM at 5-HT2A; 20 nM on 5-HT2C [1]; 10000 nM on D1; greater than 100 nM at D2; greater than 100 nM at Sigma. In addition, the “selectivity of binding among 5-HT receptors (in words)” value in the data set with 5-HT2C [2] is on record as “binds only to 2C”. For the same compound, the “binding at sigma receptors (in words)” value on Sigma is given as “does not”. For the same compound, the results for the minimal effective dose (in “Elevated plus-maze test”; in data set [3]) were 1 mg/kg and greater than 3 mg/kg, respectively. In “Elevated plus-maze test”, the “effect in the elevated plus maze test (in words)” value is listed as “effective in the elevated plus maze test”. Also, the “effect on mCPP induced anxiety (in words)” value in data set [3] is recorded as “completely ineffective up to 3.0 mg/kg i.p”. For the same compound, the values for the ED50 (in data set [4]; in “animal or person”) were 57 mg/kg and 4 mg/kg, respectively. In addition, in [4] (sedato-hypnotic side effect, compared to Compound B), the “inhibition of spontaneous motor activity (in words)” value is “inhibited the spontaneous motor activity in higher doses only”. Also, the “potentiation of hexobarbital induced narcosis (in words)” value in the data set “animal or person” (mouse, in vivo) is “potentiated the hexobarbital induced narcosis to a lesser extent”.
